Experimental data reported in patent US10143638B2, “Method of treating skin with ingenol mebutate” (LEO Laboratories Limited, priority 2009, dated 2018).

How the values were obtained:
HAS2 = HAS2 gene expression by dermal fibroblasts (qPCR); format: cell-based, human; settings: non-significant (p>0.05)
Excerpt: (§1) A normal adult skin biopsy (6 mm) was obtained (n=1), with informed consent, from an individual attending the Oral Surgery Clinic, School of Dentistry, Wales College of Medicine, Cardiff. Following the application of a local anaesthetic, the dermal biopsy was collected and adult dermal fibroblast cultures established by single cell suspension technique, following enzymic degradation of the specimen. This technique has previously been reliably used to establish viable primary cultures of both oral and dermal fibroblasts in vitro (Cook et al, 2000; Stephens et al, 2001; 2003). Dermal fibroblasts were cultured in Fibroblast-Serum Containing Medium, containing Dulbecco's Modified Eagle's Medium (DMEM), supplemented with L-glutamine (2 mM), antibiotics (100 U/ml) penicillin G sodium, […] streptomycin sulphate and 0.25 μg/ml amphotericin B) and 10% foetal calf serum (all purchased from Invitrogen Ltd., Paisley, U.K.). Dermal fibroblast cultures were maintained at 37° C., in a 5% CO2/95% air atmosphere, with the culture medium being changed every 2-3 days. Dermal fibroblasts were used between) passage 7-17, for all experiments.
Following trypsinization, dermal fibroblasts were seeded in 24-well tissue culture plates, in PEP005-free, Fibroblast-Serum Containing Medium (1 ml), at a cell density of 2.5×10^4 cell/well. Dermal fibroblasts were maintained at 37° C., in a 5% CO2/95% air atmosphere, overnight. At this stage, the culture medium was replaced with Fibroblast-Serum Containing Medium (600 μl), containing 0 μg/ml, 0.01 μg/ml, 0.1 μg/ml, 1 μg/ml, 10 μg/ml or 100 μg/ml PEP005, +/−TGF-β1 (10 ng/ml) (three culture wells per PEP005 concentration). A control was also established, consisting of cells in Fibroblast-Serum Containing Medium, containing 1% DMSO. The dermal fibroblasts were maintained at 37° C., in a 5% CO2/95% air atmosphere, for 24 h or 72 h, prior to washing in PBS (3×1 ml) and Trizol® Reagent (250 μl) added to the cells, for 5 min at room temperature, to induce cell lysis. RNA was extracted by the phenol-chloroform method, as described above, while a cDNA library was generated via random hexamer RT, as described above. RNA (1 μg) was added to 100 µM random hexamer (1 μl), 5×RT Buffer (4 μl), 2.5 mM Deoxynucleoside Triphosphates (dNTPs, 5 μl), 2 μl DTT and Nuclease-Free Water, were added to the reaction (total volume, 20 μl). To denature the RNA, reaction tubes were placed in a GeneAmp PCR System 9700 (Applied Biosystems, Cheshire, U.K.) and heated for 5 min/95° C., prior to cooling to 4° C. Superscript (1 μl) and RNAsin® Ribonuclease Inhibitor (1 μl, Promega, Hampshire, U.K.) were added to each tube, and the tubes subjected to […] at 20° C. for 10 min, 42° C. for 1 h and 95° C. for 5 min, prior to storage at 4° C., until required. As a negative control, RT was also performed, with Nuclease-Free Water replacing the RNA sample.
qPCR was performed, as described above, with the probe and primers for HAS1, HAS2 and HAS3 (target genes) and the 18s ribosomal RNA (reference gene), designed and supplied by Applied Biosystems. PCR was performed in a final volume of 20 μl/sample, with each reaction mix consisting of cDNA (1 μl), target gene primers and probe (1 μl), Taqman® FAST Universal PCR Master Mix (10 μl, Applied Biosystems), and Nuclease-Free Water (8 μl). PCR amplification was performed, using an initial cycle of 95° C. for 1 s, followed by 40 cycles of 60° C. for 20 s. A cDNA-free control was also included. Again, the comparative CT method was used for relative quantification of gene expression. Each experiment was performed on three separate occasions.

[1] = Stability of PEP005/DMSO stock solution; format: physicochemical; settings: 10 mg/ml in DMSO, stored at 4° C.
Method: PEP005, obtained from Peplin in 20 mg batches, was stored at 4° C. When required, the PEP005 was solubilized in dimethyl sulphoxide (DMSO, >99.9%, Sigma Chemical Company, Dorset, U.K.), at a concentration of 10 mg/ml. […] Prior to use, the PEP005/DMSO stock solution was removed from 4° C. storage and warmed to room temperature. The required volumes of PEP005/DMSO were aliquoted into a poly-propylene vessel and the PEP005/DMSO diluted to the required concentration (typically 0.01 μg/ml, 0.1 μg/ml, 1 μg/ml, 10 μg/ml and 100 μg/ml) in Fibroblast-Serum Containing Medium (for dermal fibroblast cultures, Section 3.1), with fresh PEP005/culture medium solutions being prepared daily, at the various concentrations above, due to solution stability. Prior to discarding PEP005/culture medium solutions, at least two volumes of 0.1% sodium hydroxide (Sigma Chemical Company), in 95% ethanol/5% methanol (both from Thermo Fisher Scientific, Leicestershire, U.K.), was added to each solution, to deactivate.

dermal fibroblasts = experiment: Hyaluronan synthesis by dermal fibroblasts (Hyaluronic Acid Quantitative Test Kit); format: cell-based, human
Excerpt: as §1
Following trypsinization, dermal fibroblasts were seeded in 24-well tissue culture plates in PEP005-free, Fibroblast-Serum Containing Medium (1 ml), at a cell density of 2.5×10^4 cell/well. Dermal fibroblasts were maintained at 37° C., in a 5% CO2/95% air atmosphere, for 48 h, prior to maintenance in serum-free, Fibroblast-Serum Containing Medium (1 ml), for a further 48 h. At this stage, the serum-free, culture medium was replaced with Fibroblast-Serum Containing Medium (600 μl), containing 0 μg/ml, 0.01 μg/ml, 0.1 μg/ml, 1 μg/ml, 10 μg/ml or 100 μg/ml PEP005, +/−TGF-β1 (10 ng/ml) (three culture wells per PEP005 concentration). A control was also established, consisting of cells in serum-free, Fibroblast-Serum Containing Medium, containing 1% DMSO. The dermal fibroblasts were maintained at 37° C., in a 5% CO2/95% air atmosphere, for 24 h or 72 h, prior to culture medium removal. Hyaluronan synthesis in the collected culture media was quantified, using a Hyaluronic Acid Quantitative Test Kit (Corgenix U.K. Ltd., Cambridgeshire, U.K.), which utilizes a naturally occurring bovine binding protein to hyaluronan. Supernatants were assayed, as per manufacturer's instructions, and optical density measured using a spectrophotometer at 450 nm. Hyaluronan concentrations were determined by comparing the absorbance of the sample against a reference curve prepared from the reagent blank and standards. Each experiment was performed on three separate occasions.

C/C=C(/C)C(=O)O[C@H]1C(C)=C[C@]23C(=O)[C@@H](C=C(CO)[C@@H](O)[C@]12O)[C@H]1[C@@H](C[C@H]3C)C1(C)C [PEP005, ingenol-3-angelate]
HAS2 gene expression (HAS2; PEP005 0.01-100 μg/ml plus TGF-β1 (10 ng/ml), 72 h): general down-regulation
HAS2 expression (HAS2; PEP005 0.1-10 μg/ml plus TGF-β1 (10 ng/ml), 24 h): up-regulation
HAS2 expression (HAS2; PEP005 0.1-10 μg/ml, absence of TGF-β1, 24 h): stimulatory effect
HAS2 gene expression (HAS2; PEP005 0.1-10 μg/ml, absence of TGF-β1, 72 h): major up-regulation
stability of PEP005/DMSO stock solution [1]: stable for several months
hyaluronan synthesis (dermal fibroblasts; PEP005 0.01-10 μg/ml, absence of TGF-β1, 24 h, compared to untreated controls): significant, stimulatory effect
hyaluronan synthesis (dermal fibroblasts; PEP005 0.01-100 μg/ml, absence of TGF-β1, 72 h, compared to untreated controls): significant, stimulatory effect
hyaluronan synthesis (dermal fibroblasts; PEP005 plus TGF-β1 (10 ng/ml), 24 h, compared to untreated controls and to PEP005 without TGF-β1): significant, synergistic effect
